# In the supplement of paper PMC10307832:
# Columns and labels:
# Assay in all cases: relative viability (nuclei count vs DMSO), 5 days (fraction); higher = more cells survive
# [1] = tested on: 201T
# Procedure, shortened: (§1)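 The day after seeding in 1536-well plates, lung cancer cell lines were treated by pin tool with a single drug, or with a fixed anchor-drug dose together with five library-drug doses (not always all listed) in √10 steps. After 5 days, a combined fix-and-stain solution (final 0.05% Triton X-100, 1% formaldehyde, 1 ug/ml Hoechst) was added. Nuclei counted on 4× images gave relative viability as treated counts over vehicle counts, reported as the median of duplicate plates.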
# [2] = tested on: BEN
# Procedure, shortened: as §1
# [3] = tested on: EPLC-272H
# Procedure, shortened: as §1
# [4] = tested on: HCC-15
# Procedure, shortened: as §1
# [5] = tested on: HCC-78
# Procedure, shortened: as §1
# [6] = tested on: LCLC-97TM1
# Procedure, shortened: as §1
# [7] = tested on: LU99A
# Procedure, shortened: as §1
# [8] = tested on: NCI-H1355
# Procedure, shortened: as §1
# [9] = tested on: NCI-H1395
# Procedure, shortened: as §1
# [10] = tested on: NCI-H2009
# Procedure, shortened: as §1
# [11] = tested on: NCI-H2085
# Procedure, shortened: as §1
# [12] = tested on: NCI-H2126
# Procedure, shortened: as §1
structure (smiles),measurement,setting,value
Cc1csc(=NC2CCCCC2)n1/N=C/c1ccc(O)c(O)c1O [MIM1] + N=C(N)NC(=N)NCCc1ccccc1 [Phenformin] (partner 250 µM),relative viability,[1]; first compound 0.2 µM,0.456
same,relative viability,[1]; first compound 0.6325 µM,0.414
same,relative viability,[1]; first compound 2 µM,0.451
same,relative viability,[1]; first compound 6.325 µM,0.345
same,relative viability,[1]; first compound 20 µM,0.321
same,relative viability,[2]; first compound 0.2 µM,0.261
same,relative viability,[2]; first compound 0.6325 µM,0.236
same,relative viability,[2]; first compound 2 µM,0.236
same,relative viability,[2]; first compound 6.325 µM,0.28
same,relative viability,[2]; first compound 20 µM,0.213
same,relative viability,[3]; first compound 0.2 µM,0.324
same,relative viability,[3]; first compound 0.6325 µM,0.273
same,relative viability,[3]; first compound 2 µM,0.279
same,relative viability,[3]; first compound 6.325 µM,0.184
same,relative viability,[3]; first compound 20 µM,0.104
same,relative viability,[4]; first compound 0.2 µM,0.501
same,relative viability,[4]; first compound 2 µM,0.51
same,relative viability,[4]; first compound 6.325 µM,0.162
same,relative viability,[4]; first compound 20 µM,0.114
same,relative viability,[5]; first compound 0.2 µM,0.81
same,relative viability,[5]; first compound 0.6325 µM,0.53
same,relative viability,[5]; first compound 2 µM,0.628
same,relative viability,[5]; first compound 6.325 µM,0.597
same,relative viability,[5]; first compound 20 µM,0.347
same,relative viability,[6]; first compound 0.2 µM,0.445
same,relative viability,[6]; first compound 0.6325 µM,0.434
same,relative viability,[6]; first compound 2 µM,0.413
same,relative viability,[6]; first compound 6.325 µM,0.312
same,relative viability,[6]; first compound 20 µM,0.142
same,relative viability,[7]; first compound 0.2 µM,0.976
same,relative viability,[7]; first compound 0.6325 µM,0.753
same,relative viability,[7]; first compound 2 µM,0.819
same,relative viability,[7]; first compound 6.325 µM,0.702
same,relative viability,[7]; first compound 20 µM,0.325
same,relative viability,[8]; first compound 0.2 µM,0.46
same,relative viability,[8]; first compound 0.6325 µM,0.351
same,relative viability,[8]; first compound 2 µM,0.443
same,relative viability,[8]; first compound 6.325 µM,0.399
same,relative viability,[8]; first compound 20 µM,0.274
same,relative viability,[9]; first compound 0.2 µM,0.45
same,relative viability,[9]; first compound 0.6325 µM,0.444
same,relative viability,[9]; first compound 2 µM,0.459
same,relative viability,[9]; first compound 6.325 µM,0.399
same,relative viability,[9]; first compound 20 µM,0.346
same,relative viability,[10]; first compound 0.2 µM,0.493
same,relative viability,[10]; first compound 0.6325 µM,0.479
same,relative viability,[10]; first compound 2 µM,0.45
same,relative viability,[10]; first compound 6.325 µM,0.309
same,relative viability,[10]; first compound 20 µM,0.169
same,relative viability,[11]; first compound 0.2 µM,0.739
same,relative viability,[11]; first compound 0.6325 µM,0.713
same,relative viability,[11]; first compound 2 µM,0.788
same,relative viability,[11]; first compound 6.325 µM,0.589
same,relative viability,[11]; first compound 20 µM,0.468
same,relative viability,[12]; first compound 0.2 µM,0.512
same,relative viability,[12]; first compound 0.6325 µM,0.524
